Here are results for one compound from paper PMC5036131, “Fragment-based discovery of a new family of non-peptidic small-molecule cyclophilin inhibitors with potent antiviral activities” (Nature Communications, 2016).

Series [1] in a line: LogD determination by reverse-phase HPLC. It counts as physicochemical. The settings on record: octanol/water, pH 7.4. The procedure: The octanol/water partitioning (LogD) values of compounds were determined from their retention times during reverse-phase HPLC at pH 7.4 with diode array ultraviolet/visible detection. The LogD values were obtained by interpolation within a standard curve (range LogD: 0.3–5.7) generated with seven standards, with LogD values previously determined using the shake-flask method.

A short description of series [2]: Cell culture medium binding, equilibrium dialysis. It is filed as in vitro ADME. The settings on record: 2 μM, 37 °C, 3 h dialysis. The procedure: The extent of binding to pooled human plasma and to cell culture medium containing 10% fetal bovine serum was determined by equilibrium dialysis against isotonic phosphate buffer. Equilibrium dialysis was conducted at 37 °C with initial concentrations of compounds of 2 μM in the non-buffer matrix. A 3 h dialysis time was used for equilibration. Following dialysis, plasma samples were drained into pre-weighed polypropylene tubes containing buffer and buffer samples were drained into pre-weighed tubes containing blank plasma. Post-dialysis plasma and buffer weights were measured and recorded for concentration and recovery calculations. After precipitation and centrifugation, LC-MS/MS assays were used for the analysis of each of the protein/phosphate buffer-mixed matrices. Relative binding to human plasma and cell culture medium was determined in a similar manner, except that the two matrices were dialysed against each other directly and the compound was spiked into both matrices. After equilibration, the plasma sample was diluted with blank cell culture medium and the cell culture medium diluted with blank plasma.
(In general: In equilibrium dialysis free small molecules cross a membrane that holds back macromolecules.)

In series [3] the target is T1, CYP2C8 (Homo sapiens, UniProt P10632).
T1 sequence (P10632 1-490): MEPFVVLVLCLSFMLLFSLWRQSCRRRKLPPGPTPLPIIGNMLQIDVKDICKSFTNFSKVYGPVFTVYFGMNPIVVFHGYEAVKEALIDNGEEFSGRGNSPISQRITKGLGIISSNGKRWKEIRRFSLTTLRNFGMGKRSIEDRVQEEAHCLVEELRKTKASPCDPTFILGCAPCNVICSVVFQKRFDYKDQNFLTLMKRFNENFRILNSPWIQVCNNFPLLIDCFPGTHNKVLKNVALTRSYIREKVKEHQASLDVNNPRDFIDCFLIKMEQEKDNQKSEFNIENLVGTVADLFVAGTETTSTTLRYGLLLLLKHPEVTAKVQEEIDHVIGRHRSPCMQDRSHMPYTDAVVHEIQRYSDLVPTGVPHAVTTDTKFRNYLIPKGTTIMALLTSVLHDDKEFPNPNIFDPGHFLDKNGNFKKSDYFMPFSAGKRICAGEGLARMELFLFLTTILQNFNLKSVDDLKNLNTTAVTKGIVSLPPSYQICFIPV
The series is described as follows: Metabolism by recombinant human cytochrome P450, CYP2C8. It counts as in vitro ADME. As to conditions: recombinant enzyme. The procedure: (§1) […] of compound was incubated with individual bacterially expressed recombinant human cytochromes P450 co-expressed with human NADPH cytochrome P450 reductase. […] Enzyme-selective positive control substrates were tested in parallel.

A further series concerns the target CYP2C19 (Homo sapiens, UniProt P33261). The series can be described thus: Metabolism by recombinant human cytochrome P450, CYP2C19. It counts as in vitro ADME. The settings on record: recombinant enzyme. Here is the method: as §1
The next series concerns MRC5 cells. The series is described as follows: Cellular toxicity in MRC5 cells. The settings on record: read-out: MRC5 cells CC50; MRC5 cells.
The subject of another series is MT4 cells. The series is described as follows: Cytotoxicity in uninfected MT4 cells. The settings on record: read-out: MT4 cells CC50.
Another series addresses T2, CYP1A2 (Homo sapiens, UniProt P05177).
T2 sequence (P05177 1-516): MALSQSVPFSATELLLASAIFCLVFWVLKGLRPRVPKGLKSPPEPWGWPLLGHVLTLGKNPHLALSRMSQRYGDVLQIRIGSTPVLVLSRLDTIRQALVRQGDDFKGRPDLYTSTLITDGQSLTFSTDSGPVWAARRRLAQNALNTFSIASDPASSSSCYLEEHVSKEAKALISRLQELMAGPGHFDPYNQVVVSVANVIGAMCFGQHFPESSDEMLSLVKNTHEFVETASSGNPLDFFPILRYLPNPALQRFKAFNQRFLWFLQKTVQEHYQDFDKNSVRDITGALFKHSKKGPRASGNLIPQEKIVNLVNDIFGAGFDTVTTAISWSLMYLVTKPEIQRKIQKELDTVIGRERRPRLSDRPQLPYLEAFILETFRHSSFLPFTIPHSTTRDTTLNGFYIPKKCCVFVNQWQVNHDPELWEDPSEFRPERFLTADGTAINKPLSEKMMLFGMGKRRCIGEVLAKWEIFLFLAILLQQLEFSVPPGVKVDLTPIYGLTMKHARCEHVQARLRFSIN
The series can be described thus: Cytochrome P450 enzyme inhibition assay, CYP1A2. Details: incubated with human hepatic microsomal fractions and NADPH; from tissue; host or cells: human hepatic microsomal fractions. It is filed as in vitro ADME. As to conditions: human hepatic microsomal fractions, up to 25 μM. Here is the method: (§2) Up to 25 μM of compounds 29 and 30 was incubated with human hepatic microsomal fractions and NADPH in the presence of individual probe substrates. All assays were designed so that conditions were linear with respect to time and protein concentration. Substrates were present at concentrations equal to or lower than their respective Km values. Enzyme selective products were determined by fluorometry (ethoxyresorufin O-deethylase) or by specific LC-MS/MS assays. Relative enzyme activities were determined by comparison with those assayed with DMSO vehicle instead of inhibitor. IC50 values were calculated by nonlinear curve fitting using a sigmoidal model. Positive control inhibitors for each enzyme were tested in parallel.

In a further series the target is T3, CYP2B6 (Homo sapiens, UniProt P20813).
T3 sequence (P20813 1-491): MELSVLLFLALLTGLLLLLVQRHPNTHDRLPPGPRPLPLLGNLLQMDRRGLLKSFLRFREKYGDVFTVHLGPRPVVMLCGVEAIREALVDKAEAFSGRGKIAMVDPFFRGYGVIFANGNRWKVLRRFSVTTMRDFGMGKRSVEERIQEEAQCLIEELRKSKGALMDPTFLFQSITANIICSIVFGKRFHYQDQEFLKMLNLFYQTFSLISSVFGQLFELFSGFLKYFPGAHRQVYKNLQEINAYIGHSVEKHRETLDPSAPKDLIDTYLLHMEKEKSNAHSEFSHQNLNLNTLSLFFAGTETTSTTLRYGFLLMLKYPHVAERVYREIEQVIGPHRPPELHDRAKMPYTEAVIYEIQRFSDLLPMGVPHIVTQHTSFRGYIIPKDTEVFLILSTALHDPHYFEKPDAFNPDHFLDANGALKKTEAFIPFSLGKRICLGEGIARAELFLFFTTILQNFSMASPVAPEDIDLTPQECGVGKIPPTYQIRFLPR
The series is described as follows: Cytochrome P450 enzyme inhibition assay, CYP2B6. Details: incubated with human hepatic microsomal fractions and NADPH; from tissue; host or cells: human hepatic microsomal fractions. The settings on record: human hepatic microsomal fractions, up to 25 μM. It is filed as in vitro ADME. Here is the method:
as §2

For series [4], the target named is T1, CYP2C8. The series can be described thus: Cytochrome P450 enzyme inhibition assay, CYP2C8. It counts as in vitro ADME. Details: incubated with human hepatic microsomal fractions and NADPH; from tissue; host or cells: human hepatic microsomal fractions. As to conditions: human hepatic microsomal fractions, up to 25 μM. The procedure:
as §2

SMILES strings stand for the structures. Where only a bound is given, the exact number is not on record here.

Chain of CYP2C19 (P33261 whole entry): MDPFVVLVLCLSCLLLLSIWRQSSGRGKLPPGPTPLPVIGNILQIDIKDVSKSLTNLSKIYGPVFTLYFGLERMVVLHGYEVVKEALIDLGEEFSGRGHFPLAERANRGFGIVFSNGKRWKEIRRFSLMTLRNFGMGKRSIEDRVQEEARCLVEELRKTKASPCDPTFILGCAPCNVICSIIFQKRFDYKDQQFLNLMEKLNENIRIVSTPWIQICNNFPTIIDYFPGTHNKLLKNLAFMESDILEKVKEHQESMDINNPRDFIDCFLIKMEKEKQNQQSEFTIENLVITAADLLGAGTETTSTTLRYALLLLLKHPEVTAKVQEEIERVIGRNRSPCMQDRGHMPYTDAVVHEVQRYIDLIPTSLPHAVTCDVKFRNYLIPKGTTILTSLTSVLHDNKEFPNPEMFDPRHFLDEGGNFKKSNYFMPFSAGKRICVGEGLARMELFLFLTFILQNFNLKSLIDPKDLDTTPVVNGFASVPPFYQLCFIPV

For the compound `CSCCC(NC(=O)NCc1ccc(N)cc1)C(=O)N1CCCC1c1ccccc1SC.O=C(O)C(F)(F)F` (stereo not shown) [Compound 30], the LogD (commonly the decadic logarithm of the distribution of all forms, ionised or not, between an organic phase and buffer at a given pH) in series [1] stood at 2.6. Also, the “Cell culture medium (CCM) binding Unbound” value in series [2] is 23.2%. For the same compound, the “Rate of metabolism by human cytochrome P450 CYP2C8” value on CYP2C8 [3] was 0.56 pmol/pmol P450/min. Moreover, the “Rate of metabolism by human cytochrome P450 CYP2C19” value at CYP2C19 is on record as 6.21 pmol/pmol P450/min; at CYP2C19 (listed as compound 30), “metabolized at the highest rate”. For the same compound, the CC50 (commonly the concentration that lowers cell viability or growth by half) in the series on MRC5 cells is > 100 µM; in the series on MT4 cells, > 53 µM. Moreover, the IC50 (commonly the concentration needed to halve the response being measured) at CYP1A2 was > 25 µM; at CYP2B6, > 25 µM; at CYP2C8 [4], 9.4 µM. The “Inhibition of cytochrome P450 activity, IC50 CYP1A2” value at CYP1A2 is “Neither compound 29 nor compound 30 significantly inhibited”. The “Inhibition of cytochrome P450 activity, IC50 CYP2B6” value at CYP2B6 is given as “Neither compound 29 nor compound 30 significantly inhibited”. The “Inhibition of cytochrome P450 activity, IC50 CYP2C8” value at CYP2C8 [4] was “moderate inhibitors”.
